Reference: PMC2654404 (Journal of molecular biology, 2008)
“And” between values parts separate entries of the source, which are not always exact repeats. Equal values may be shown once. Read-outs that look alike come from different tables or passages of the source. Marks after values point to notes of the source that are not given here.

Experiments:
[1] = biological target: T1, B. anthracis NMAT (Bacillus anthracis, UniProt C3L5T6); assay type: biochemical
[2] = biological target: T1, B. anthracis NMAT; assay type: biochemical; remark: listed apart in the source
[3] = test system: (His)6-tag B. anthracis NMAT; assay type: biochemical, Bacillus anthracis
[4] = test system: (His)6-tag B. anthracis NMAT; assay type: biochemical, Bacillus anthracis; remark: listed apart in the source
[5] = biological target: T1, B. anthracis NMAT; experiment: biochemical; assay type: binding
[6] = test system: native B. anthracis NMAT; assay type: biochemical; conditions: pH 7.5
[7] = test system: native B. anthracis NMAT; assay type: biochemical, Bacillus anthracis; conditions: pH 7.5
[8] = biological target: T1, B. anthracis NMAT; assay type: biochemical; remark: listed apart in the source
[9] = biological target: (His)6-tagged NMAT (Bacillus anthracis, UniProt C3L5T6)
[10] = read-out: KD2 (dissociation constant, second site), pH 7.5

T1 sequence (C3L5T6 whole entry, looked up): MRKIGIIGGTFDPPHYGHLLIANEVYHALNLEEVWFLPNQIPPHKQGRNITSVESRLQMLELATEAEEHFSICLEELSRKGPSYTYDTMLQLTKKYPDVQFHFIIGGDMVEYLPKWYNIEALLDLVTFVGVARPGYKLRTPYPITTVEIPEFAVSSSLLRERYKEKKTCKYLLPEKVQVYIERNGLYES
Sequence of (His)6-tagged NMAT (C3L5T6 whole entry, looked up): as above

O=c1ccn([C@@H]2O[C@H](CO[P@@](=O)(O)O[P@@](=O)(O)OP(=O)(O)O)[C@@H](O)[C@H]2O)c(=O)[nH]1 (stereo in doubt) [UTP, uridine triphosphate]
ability to serve as substrate for NMAT in place of ATP [1]: Only CTP and dATP were able to serve as substrates

Nc1ncnc2c1ncn2[C@@H]1O[C@H](COP(=O)(O)OP(=O)(O)O)[C@@H](O)[C@H]1O [ADP]
ability to activate or inhibit the NMAT reaction [2]: None of these compounds were observed to have an effect
ability to serve as substrate for NMAT in place of ATP [1]: Only CTP and dATP were able to serve as substrates

Nc1ncnc2c1ncn2[C@@H]1O[C@H](COP(=O)(O)O)[C@@H](O)[C@H]1O [AMP]
ability to activate or inhibit the NMAT reaction [2]: None of these compounds were observed to have an effect
ability to serve as substrate for NMAT in place of ATP [1]: Only CTP and dATP were able to serve as substrates

Nc1ncnc2c1ncn2[C@@H]1O[C@H](COP(=O)(O)OP(=O)(O)OP(=O)(O)O)[C@@H](O)[C@H]1O [ATP, adenosine triphosphate]
K0.5 ([3]; pH 7.5): 142 ± 28 μM and 142 ± 28 ^c μM and 79 ± 6 ^d μM
difference in K0.5 between the continuous and discontinuous assays [4]: ~4 fold
Kd [5]: 215 µM
ΔH1 ([5]; pH 7.5): ΔH1= −5348 ± 216 cal/mol
ΔH2 ([5]; pH 7.5): ΔH2= −1.4E4 ± 350 cal/mol
ΔS1 ([5]; pH 7.5): ΔS1= −1.2 cal/mol*K
ΔS2 ([5]; pH 7.5): ΔS2= −36 cal/mol*K
Kd [5, 10]: 3720 µM
kcat [6]: 973 ± 120 ^c min^−1 and 702 ± 20 ^d min^−1
nH (Hill coefficient) [6]: 0.621 ± 0.007 ^c
kcat [7]: 1240 ± 111 ^c min^−1 and 864 ± 19 ^d min^−1
nH (Hill coefficient) [7]: 0.661 ± 0.004 ^c

Nc1ccn([C@@H]2O[C@H](COP(=O)(O)OP(=O)(O)O)[C@@H](O)[C@H]2O)c(=O)n1 [CDP, cytidine diphosphate]
ability to serve as substrate for NMAT in place of ATP [1]: Only CTP and dATP were able to serve as substrates

Nc1ccn([C@@H]2O[C@H](COP(=O)(O)OP(=O)(O)OP(=O)(O)O)[C@@H](O)[C@H]2O)c(=O)n1 [CTP, cytidine triphosphate]
ability to serve as substrate for NMAT in place of ATP [1]: able to serve as substrates

O=C(CO)COP(=O)(O)O [DHAP, dihydroxyacetone phosphate]
ability to activate or inhibit the NMAT reaction [2]: None of these compounds were observed to have an effect

Nc1nc2c(ncn2[C@@H]2O[C@H](COP(=O)(O)OP(=O)(O)O)[C@@H](O)[C@H]2O)c(=O)[nH]1 [GDP, guanosine diphosphates]
ability to serve as substrate for NMAT in place of ATP [1]: Only CTP and dATP were able to serve as substrates

Nc1nc2c(ncn2[C@@H]2O[C@H](COP(=O)(O)OP(=O)(O)OP(=O)(O)O)[C@@H](O)[C@H]2O)c(=O)[nH]1 [GTP, guanosine triphosphate]
ability to serve as substrate for NMAT in place of ATP [1]: Only CTP and dATP were able to serve as substrates

O=c1[nH]cnc2c1ncn2[C@@H]1O[C@H](COP(=O)(O)OP(=O)(O)O)[C@@H](O)[C@H]1O [IDP, inosine diphosphate]
ability to serve as substrate for NMAT in place of ATP [1]: Only CTP and dATP were able to serve as substrates

N[C@@H](CC(=O)O)C(=O)O [L-aspartic acid]
ability to activate or inhibit the NMAT reaction [2]: None of these compounds were observed to have an effect

NC(=O)c1ccc[n+]([C@@H]2O[C@H](COP(=O)([O-])OP(=O)(O)OC[C@H]3O[C@@H](n4cnc5c(N)ncnc54)[C@H](O)[C@@H]3O)[C@@H](O)[C@H]2O)c1 [NAD, nicotinamide adenine dinucleotide]
ability to activate or inhibit the NMAT reaction [2]: None of these compounds were observed to have an effect

NC(=O)c1ccc[n+]([C@@H]2O[C@H](COP(=O)([O-])O)[C@@H](O)[C@H]2O)c1 [NMN, nicotinamide mononucleotide]
ability to activate or inhibit the NMAT reaction [2]: None of these compounds were observed to have an effect
activity of NMAT with the mononucleotide as substrate [8]: little to no activity

Nc1ncnc2c1ncn2[C@@H]1O[C@H](COP(=O)(O)OP(=O)(O)OC[C@H]2O[C@@H]([n+]3cccc(C(=O)O)c3)[C@H](O)[C@@H]2O)[C@@H](O)[C@H]1O [NaAD, nicotinate adenine dinucleotide]
pattern of inhibition by the reaction product, ATP as variable substrate [9]: competitive inhibition
pattern of inhibition by the reaction product, NaMN as variable substrate [9]: competitive inhibition
Stoichiometry to monomer ([5]; pH 7.5): 0.924 ± 0.003
ΔH ([5]; pH 7.5): -6.446 ± 0.03 kcal/mol
ΔS ([5]; pH 7.5): ΔS=3.5 cal/mol*K
Kd ([5]; read-out: KD (dissociation constant), pH 7.5): 3.2 ± 0.8 µM

O=C(O)c1ccc[n+]([C@@H]2O[C@H](COP(=O)(O)O)[C@@H](O)[C@H]2O)c1 [NaMN, nicotinate mononucleotide]
difference in K0.5 between the continuous and discontinuous assays [4]: ~4 fold
ΔH1 ([5]; pH 7.5): ΔH1= −5385 ± 47 cal/mol
ΔH2 ([5]; pH 7.5): ΔH2= −3954 ± 183 cal/mol
ΔS1 ([5]; pH 7.5): ΔS1= −2.4 cal/mol*K
ΔS2 ([5]; pH 7.5): ΔS2= −3.9 cal/mol*K
Kd ([5]; read-out: KD1 (dissociation constant, first site), pH 7.5): 382 µM
Kd [5, 10]: 9210 µM
K0.5 [6]: 16 ± 1 ^c μM and 15 ± 1 ^d μM
kcat [6]: 815 ± 12 ^c min^−1 and 782 ± 7 ^d min^−1
nH (Hill coefficient) [6]: 0.806 ± 0.004 ^c
K0.5 [7]: 110 ± 18 ^c μM and 65 ± 5 ^d μM
kcat [7]: 1059 ± 49 ^c min^−1 and 890 ± 16 ^d min^−1
nH (Hill coefficient) [7]: 0.708 ± 0.004 ^c

O=P(O)(O)OC[C@H]1O[C@H](OP(=O)(O)OP(=O)(O)O)[C@H](O)[C@@H]1O [PRPP, 5-phospho-ribose-1-pyrophosphate]
ability to activate or inhibit the NMAT reaction [2]: None of these compounds were observed to have an effect

Cc1cn([C@H]2C[C@H](O)[C@@H](COP(=O)(O)OP(=O)(O)O)O2)c(=O)[nH]c1=O [TDP, thymidine diphosphate]
ability to serve as substrate for NMAT in place of ATP [1]: Only CTP and dATP were able to serve as substrates

O=c1ccn([C@@H]2O[C@H](COP(=O)(O)OP(=O)(O)O)[C@@H](O)[C@H]2O)c(=O)[nH]1 [UDP, uridine diphosphate]
ability to serve as substrate for NMAT in place of ATP [1]: Only CTP and dATP were able to serve as substrates

Nc1ncnc2c1ncn2[C@H]1C[C@H](O)[C@@H](COP(=O)(O)OP(=O)(O)OP(=O)(O)O)O1 [dATP, Deoxyadenosine triphosphate]
ability to serve as substrate for NMAT in place of ATP [1]: able to serve as substrates

OCC(O)CO [glycerol]
effect of 10% glycerol on the steady-state kinetic parameters of ATP and NaMN [3]: no significant change in the kinetic parameters

O=C(O)c1cccnc1C(=O)O [quinolic acid]
ability to activate or inhibit the NMAT reaction [2]: None of these compounds were observed to have an effect

nicotinamide adenine dinucleotide phosphate [NADP]
ability to activate or inhibit the NMAT reaction [2]: None of these compounds were observed to have an effect
